Measurements published in US20140349945A1, “PEG-AMINO ACID-OLIGOPEPTIDE-IRINOTECAN DRUG CONJUGATES AND THE PHARMACEUTICAL COMPOSITIONS” (JENKEM TECHNOLOGY CO., LTD. (BEIJING), priority 2011, published 2014).
Marks after values point to notes of the source that are not given here.

What was measured:
[1] = system: human colon cancer cells HCT-116; experiment: Inhibitory effect on transplanted tumors of human colon cancer cells HCT-116 in nude mice; conditions: for Weight At the beginning / Weight At lats: HCT-116 tumor-bearing nude mice; for Weight At the beginning: baseline; for Weight At lats: end of experiment
From the text: BALB/cA nude mice (male, 4-6 weeks old, weighed 19±2 g) were provided by the Shanghai Institute of Materia Medica, Chinese Academy of Sciences. […] Animal numbers of each group: 12 mice in negative control group and 6 mice in treatment group.
5×10^6 cells were subcutaneously inoculated in the right armpit of each nude mouse. The transplanted tumors were transferred in nude mice for two generations before utilization.
(§1) Vigorous tumor tissues were cut into pieces of about 1.5 mm3 and then subcutaneously inoculated to the right armpit nude mice under sterile conditions. The diameters of the subcutaneous transplanted tumors were measured using a vernier caliper. The animals were randomly grouped when the tumors grew to 100-200 mm3.
(§2) After the administration, the animals were observed consecutively for one week. During the whole experiment, diameters of the transplanted tumors were measured and the animals were weighed two times a week. The tumor volume (TV) was calculated as follows: TV=½×a×b^2, wherein, a and b represented length and width respectively. According to the results of measurements, the relative tumor volumes (RTV) were calculated as follows: RTV=Vt/V0. Wherein, V0 were the volumes measured at administration after caging (i.e. d0), Vt were the tumor volumes of every measurements.

[2] = system: human colon cancer cells HT-29; experiment: Inhibitory effect on transplanted tumors of human colon cancer cells HT-29 in nude mice; conditions: for Weight At the beginning / Weight At lats: HT-29 tumor-bearing nude mice; for Weight At the beginning: baseline; for Weight At lats: end of experiment
From the text: (§3) BALB/cA nude mice (male, 5-6 weeks old, weighed 18±2 g) were provided by the Shanghai Institute of Materia Medica, Chinese Academy of Sciences. […] Animal numbers of each group: 12 mice in negative control group and 6 mice in treatment group.
Human colon tumor cell strains HT-29 were purchased from ATCC. 5×10^6 cells were subcutaneously inoculated in the right armpit of each nude mouse. The transplanted tumors were transferred in nude mice for two generations before utilization.
as §1, with “mm^3” for “mm3”, “mm^3.” for “mm3.”
as §2

[3] = system: human lung cancer cells A549; experiment: Inhibitory effect on transplanted tumors of human lung cancer cells A549 in nude mice; conditions: for Weight At the beginning: A549 tumor-bearing nude mice, baseline
From the text: as §3
Human lung tumor cell strains A549 were purchased from ATCC. 5×10^6 cells were subcutaneously inoculated in the right armpit of each nude mouse. The transplanted tumors were transferred in nude mice for two generations before utilization.
as §1, §2

[4] = system: human ovarian cancer cells SKOV-3; experiment: Inhibitory effect on transplanted tumor of human ovarian cancer cells SKOV-3 in nude mice; conditions: for TV (mean ± SD) d 28 / number of animals with tumor regression: d 28; for number of animals with tumor regression: 6 mice per group; for Weight At the beginning / Weight At lats: SKOV-3 tumor-bearing nude mice; for Weight At the beginning: baseline; for Weight At lats: end of experiment
From the text: as §3
Human […] tumor cell strains SKOV-3 were purchased from ATCC. 5×10^6 cells were subcutaneously inoculated in the right armpit of each nude mouse. The transplanted tumors were transferred in nude mice for two generations before utilization.
as §1, §2

[5] = system: human colon cancer cells SW-620; experiment: Inhibitory effect on transplanted tumor of human colon cancer cells SW-620 in nude mice; conditions: for RTV mean ± SD) / TV (mean ± SD) d 28 / number of animals with tumor regression: SW-620, d 28; for number of animals with tumor regression: 6 mice per group; for Weight At the beginning / Weight At last: SW-620 tumor-bearing nude mice; for Weight At the beginning: baseline; for Weight At last: end of experiment
From the text: as §3
Human […] tumor cell strains SW-620 were purchased from ATCC. 5×10^6 cells were subcutaneously inoculated in the right armpit of each nude mouse. The transplanted tumors were transferred in nude mice for two generations before utilization.
as §2, with “Vigorous tumor tissues were cut into pieces of about 1.5 mm3 and then subcutaneously inoculated to the right armpit nude mice under sterile conditions. The diameters of the subcutaneous transplanted tumors were measured using a vernier caliper. The animals were randomly grouped when the tumors grew to 100-200 mm3. […] After” for “After”

## CCc1c2c(nc3ccc(OC(=O)N4CCC(N5CCCCC5)CC4)cc13)-c1cc3c(c(=O)n1C2)COC(=O)[C@]3(O)CC [CPT-11, Irinotecan]
[1]; 15 mg/kg, iv q3w × 3w, HCT-116
  TV (mean ± SD) d 28: 322 ± 37 mm^3
[1]; 15 mg/kg, iv q3w × 3w
  Weight At the beginning: 19.1 g
  Weight At lats: 16.6 g
[1]; 45 mg/kg group, compared with solvent control group, HCT-116
  body weight change during the whole experiment (in words): slightly higher weight loss
[1]; 45 mg/kg, iv qw × 3w, HCT-116
  TV (mean ± SD) d 28: 512 ± 99 mm^3
[1]; 45 mg/kg, iv qw × 3w
  Weight At the beginning: 19.2 g
  Weight At lats: 15.1 g
[2]; 15 mg/kg, iv q3w × 3w
  Weight At the beginning: 18.2 g
  Weight At lats: 16.0 g
[2]; 45 mg/kg, iv qw × 3w
  Weight At the beginning: 18.6 g
  Weight At lats: 16.2 g
[2]; two groups treated with different doses (15 and 45 mg/kg), HT-29
  body weight change during the whole experiment (in words): underwent weight loss
[3]; 15 mg/kg, iv q3w × 3w, A549, d 28
  TV (mean ± SD) d 28: 831 ± 305 mm^3
[3]; 15 mg/kg, iv q3w × 3w
  Weight At the beginning: 18.1 g
[3]; 45 mg/kg, iv qw × 3w, A549, d 28
  RTV mean ± SD): 9.87 ± 4.87 ^
[3]; 45 mg/kg, iv qw × 3w
  Weight At the beginning: 18.4 g
[4]; 15 mg/kg, iv q3w × 3w, SKOV-3
  TV (mean ± SD) d 28: 924 ± 443 mm^3
  number of animals with tumor regression: 0
[4]; 15 mg/kg, iv q3w × 3w
  Weight At the beginning: 18.9 g
  Weight At lats: 18.0 g
[4]; 45 mg/kg, iv qw × 3w, SKOV-3
  TV (mean ± SD) d 28: 1753 ± 878 mm^3
  number of animals with tumor regression: 0
[4]; 45 mg/kg, iv qw × 3w
  Weight At the beginning: 19.7 g
  Weight At lats: 18.4 g
[4]; CPT-11 both dose groups, CPT-1 45 mg/kg, SKOV-3
  body weight change during the whole experiment (in words): slight weight loss
[5]; 15 mg/kg, iv q3w × 3w
  RTV mean ± SD): 0.02 ± 0.02**^,
  TV (mean ± SD) d 28: 2.09 ± 1.51 mm^3
  number of animals with tumor regression: 0
  Weight At the beginning: 19.7 g
  Weight At last: 24.2 g
[5]; 45 mg/kg, iv qw × 3w
  RTV mean ± SD): 6.60 ± 1.56
  TV (mean ± SD) d 28: 877 ± 324 mm^3
  number of animals with tumor regression: 0
  Weight At the beginning: 18.8 g
  Weight At last: 21.8 g
